In patent US20230364033A1, “COMPOUNDS FOR TREATING VIRUS INFECTIONS” (Meletios Therapeutics, priority 2020, published 2023):
Like-named read-outs stand apart in the source and are kept apart here.

Experiments:
human α-coronavirus 229E = experiment: Viral inhibition (CPE / cell viability readout) in 16HBE cells infected by α-coronavirus 229E; format: cell-based; details: for EC50: 120 h, read-out: EC50 (concentration which results in 50% viral inhibition)
Method: The EC50 and CC50 of SR-31747 were determined in an in vitro model of infection by human α-coronavirus 229E.
Briefly, a dilution series of SR-31747 (8-point, half-log dose titration, 30 μM-10 nM) was added to 16HBE cells. Vehicle and positive control (remdesivir, 8-point, half-log dose titration, 20 μM-6.4 nM) wells were set up to control for any influence of the compounds alone on cell viability. Cells were visually inspected for the appearance of any cytopathic effects (CPE). A cell viability assay was performed once CPE was complete.
The readouts were: • EC50: The concentration which results in 50% viral inhibition, following the addition of compounds; • CC50: The concentration which results in 50% cell viability, following the addition of compounds; • Selectivity index: Calculated as CC50/EC50.
Protocol: • 1. 16HBE cells permissible to infection by α-coronavirus 229E were grown and seeded into 96-well plates to a confluency of 80-90%. • 2. The compounds SR-31747 and remdesivir (positive control) were serially diluted half-log into 8 concentrations in total and added to cells for 1 hour at 37° C. • 3. After 1 hour, α-coronavirus 229E was added at 100xTCID50. A mock infection of blank media was added to the uninfected controls. • 4. After infection, the virus/compound was removed and an overlay medium was added, with equivalent concentrations of the compounds. • 5. […] Once CPE was observed, supernatants were taken and stored at −80° C. • 7. A cell viability assay was then performed on all conditions, with cells receiving the treatment compared to the vehicle treated and uninfected controls. Calculations are as follows:
% viral inhibition=[(A-B)/(C-B)] x100, where: • A: mean optical density of test, B: mean optical density of virus controls, C: mean optical density of cell controls. • Negative values occur when A<B, due either to natural variation or compound toxicity.

in vitro = details: human
SARS-CoV-2 [1] = experiment: SARS-CoV-2-infected golden hamster model of COVID-19; format: in vivo; details: infected hamsters
Source text: SR-31747 was used freshly diluted in a diluent consisting of […], 5% ethanol and 5% tween-80.
24 male hamsters RjHan:AURA SPF were acclimated during 7 days and distributed in 4 groups of 6 hamsters each: • Group 1: Infected by SARS-CoV-2 and treated by SR-31747 • Group 2: Infected by SARS-CoV-2 and treated by diluent (negative control) • Group 3: Non-infected and treated by SR-31747 • Group 4: Non-infected and treated by diluent
On day 0, hamsters were infected intranasally by SARS-CoV-2 and received a first intraperitoneal injection of SR-31747 at 40 mg/kg.
On days 1, 2 and 3 the hamsters received an intraperitoneal injection of SR-31747 at 40 mg/kg. On day 4 sera and lungs from the hamsters were sampled.
From day 0 of day 4, the body temperature of the hamsters was measured at both flanks using a touchless infrared thermometer and a cumulative clinical score was determined (ruffled fur (no=0 or yes=1), slow movements (no=0, yes=1), apathy (no=0, yes=1), absence of rearing/exploration (no=0, yes=1)).
An olfactory test was conducted on day 3 preceded by a day of fasting. Briefly, cereals were buried in the litter of an individual cage and the latency to find the hidden cereals by the hamsters was measured.

SARS-CoV-2 [2] = experiment: microbe, parasite or virus in culture; format: cell-based; details: Severe acute respiratory syndrome coronavirus 2; A549-ACE2 cells, MOI 0,1, 72 hours, viral replication inhibition; read-out: RTqPCR: IC50

Structure (SMILES)	EC50 (human α-coronavirus 229E; 16HBE)	CC50 (in vitro)	EC50 (human α-coronavirus 229E; 16HBE cells, α-coronavirus 229E at 100xTCID50, about 5 days)	Selectivity index (CC50/EC50) (human α-coronavirus 229E; α-coronavirus 229E, 16HBE cells)	Cumulative clinical score (SARS-CoV-2 [1]; 40 mg/kg intraperitoneal days 0-3, day 4, p=0,009 Mann-Whitney test)	Olfactory test: latency to find hidden cereals (SARS-CoV-2 [1]; 40 mg/kg intraperitoneal, day 3)	Lung weight (SARS-CoV-2 [1]; 40 mg/kg intraperitoneal, day 4, increase due to infection)	Body temperature (SARS-CoV-2 [1]; 40 mg/kg intraperitoneal, days 2 and 4)	IC50 (SARS-CoV-2 [2])
CCC(CC)COC(=O)[C@H](C)N[P@](=O)(OC[C@H]1O[C@@](C#N)(c2ccc3c(N)ncnn23)[C@H](O)[C@@H]1O)Oc1ccccc1 [Remdesivir, remdesivir, reference compound]	340 nM	> 20000 nM							
CCN(C/C=C\c1ccc(C2CCCCC2)c(Cl)c1)C1CCCCC1 [SR-31747, N-[(Z)-3-(3-chloro-4-cyclohexylphenyl)prop-2-enyl]-N-ethylcyclohexanamine]			1360 nM	5	significantly reduces	alleviates the olfactory dysfunction	significantly alleviated	significantly increases	2880 nM
